Measurements taken from paper PMC3794980, “Identification of Conserved and HLA Promiscuous DENV3 T-Cell Epitopes” (PLoS Neglected Tropical Diseases, 2013).
Read-outs that look alike come from different tables or passages of the source.

Columns and labels:
Experiment in all cases: biochemical
Assay type in all cases: binding
DRB4*0101 = DRB4*0101 (Homo sapiens, UniProt P01903+P13762, G164S)
DRB3*0101 = DRB3*0101 (Homo sapiens, UniProt P01903+P79483)
DRB1*0701 = DRB1*0701 (Homo sapiens, UniProt P01903+P01911, A100R/A102G/A103Q/D57E/D86V/E43K/F76Y/K127E/L162R/M171V/P40G/Q125H/Q99D/R33Q/R42Y/R54Q/S133A/S66F/T210M/V115G/Y107V/Y59L/Y89S)
DRB1*0404 = DRB1*0404 (Homo sapiens, UniProt P01903+P01911, A100R/A169T/F76Y/I96L/K127E/L162R/M171V/N62H/P40V/Q125Y/R42H/S133A/S149N/S66Y/V209L/W38E)
DRB1*0405 = DRB1*0405 (Homo sapiens, UniProt P01903+P01911, A100R/A169T/D86S/F76Y/I96L/K127E/L162R/M171V/N62H/P40V/Q125Y/R42H/S133A/S149N/S66Y/V115G/V209L/W38E)
DRB5*0101 = DRB5*0101 (Homo sapiens, UniProt P01903+Q30154)
DRB1*0802 = DRB1*0802 (Homo sapiens, UniProt P01903+P01911, A100R/A103L/A169T/F76Y/H45Y/I96F/K41T/L162R/M171V/P40S/Q125H/Q178H/Q39Y/Q99D/R218S/R42G/S66Y/V115G/W38E)
DRB1*0101 = DRB1*0101 (Homo sapiens, UniProt P01903+P01911, A100R/D57E/F55L/F60I/F76Y/I96L/L162R/M171V/P40L/Q125E/R42F/V115G/Y59C)
DRB1*1101 = DRB1*1101 (Homo sapiens, UniProt P01903+P01911, A100R/A169T/A87E/I96F/K41T/L162R/M171V/P40S/Q125H/Q178H/Q39Y/Q99D/R42S/S66Y/T262R/V115G/W38E)
DRB1*0301 = DRB1*0301 (Homo sapiens, UniProt P01903+P01911, A100K/A102G/A103R/A169T/F55Y/I96L/K41T/L162R/M171V/P40S/Q125H/Q178H/Q39Y/R42S/S66N/T106N/T262R/W38E/Y61H)
DRB1*1302 = DRB1*1302 (Homo sapiens, UniProt P01903+P01911, A100E/A169T/K41T/L162R/M171V/P40S/Q125H/Q178H/Q39Y/Q99D/R42S/S66N/T262R/V115G/W38E/Y61H)
DRB1*0401 = DRB1*0401 (Homo sapiens, UniProt P01903+P01911, A100K/A169T/F76Y/I96L/K127E/L162R/M171V/N62H/P40V/Q125Y/R42H/S133A/S149N/S66Y/V115G/V209L/W38E)
DRB1*0901 = DRB1*0901 (Homo sapiens, UniProt P01903+P01911, A100R/A103E/D57H/D86V/F55Y/F60I/F76Y/I96F/K127E/L162R/M171V/P40D/Q125H/Q99R/R33Q/R42F/S133A/S66N/T210M/V115G/W38K/Y107V/Y59G/Y89S)
DRB1*1501 = DRB1*1501 (Homo sapiens, UniProt P01903+P01911)
[1] = competitive inhibition of radiolabeled standard peptide, '-' distinct from ND, read-out: Binding Affinity (nM) DRB1*1302
[2] = competitive inhibition of radiolabeled standard peptide, '-' distinct from ND, read-out: Binding Affinity (nM) DRB1*0901

DRB1*0301, sequence (P01903 26-254, other chains not shown): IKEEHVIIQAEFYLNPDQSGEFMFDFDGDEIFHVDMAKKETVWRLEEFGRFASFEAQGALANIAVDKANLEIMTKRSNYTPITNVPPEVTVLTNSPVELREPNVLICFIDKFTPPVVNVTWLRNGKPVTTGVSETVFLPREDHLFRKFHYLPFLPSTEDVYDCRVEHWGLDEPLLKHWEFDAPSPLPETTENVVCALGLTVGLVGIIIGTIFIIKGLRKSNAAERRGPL
DRB1*1302, sequence (P01903 26-254 limits assumed, other chains not shown): as the sequence (P01903 26-254, other chains not shown) above
DRB1*1101, sequence (P01903 26-254, other chains not shown): as above

Compound	IC50 (DRB4*0101)	IC50 (DRB3*0101)	IC50 (DRB1*0701)	IC50 (DRB1*0404)	IC50 (DRB1*0405)	IC50 (DRB5*0101)	IC50 (DRB1*0802)	IC50 (DRB1*0101)	IC50 (DRB1*1101)	IC50 (DRB1*0301)	IC50 (DRB1*1302; [1])	IC50 (DRB1*0401)	IC50 (DRB1*1302)	IC50 (DRB1*0901)	IC50 (DRB1*0901; [2])	IC50 (DRB1*1501)
CC(C)C[C@H](NC(=O)[C@H](CCCNC(=N)N)NC(=O)[C@H](Cc1c[nH]cn1)NC(=O)[C@H](CC(=O)O)NC(=O)[C@H](CS)NC(=O)[C@H](CC(C)C)NC(=O)[C@H](CCC(N)=O)NC(=O)[C@@H](NC(=O)[C@H](Cc1ccc(O)cc1)NC(=O)[C@@H](NC(=O)[C@H](CCC(=O)O)NC(=O)[C@H](CCCNC(=N)N)NC(=O)[C@H](CC(C)C)NC(=O)[C@H](CCCCN)NC(=O)[C@@H](N)CC(C)C)C(C)C)[C@@H](C)O)C(=O)O [NS1 169-183]	878 nM	747 nM	136 nM	457 nM	277 nM	1300 nM	2580 nM	226 nM	4800 nM	2360 nM	9960 nM	474 nM	–	–	–	–
CSCC[C@H](NC(=O)[C@@H](NC(=O)[C@H](CCC(N)=O)NC(=O)[C@H](Cc1ccccc1)NC(=O)[C@H](CC(N)=O)NC(=O)[C@H](CCCCN)NC(=O)[C@@H]1CCCN1C(=O)[C@@H](N)CC(N)=O)[C@@H](C)O)C(=O)N1CCC[C@H]1C(=O)NCC(=O)N[C@H](C(=O)N[C@@H](Cc1ccccc1)C(=O)N[C@@H](CCC(N)=O)C(=O)N[C@H](C(=O)N[C@H](C(=O)O)[C@@H](C)O)[C@@H](C)O)[C@@H](C)O [NS3 105-119]	843 nM	2530 nM	2790 nM	39 nM	96 nM	177 nM	175 nM	49 nM	86 nM	11600 nM	–	5.4 nM	2390 nM	407 nM	–	–
CC[C@H](C)[C@H](NC(=O)[C@H](CC(=O)O)NC(=O)[C@@H](N)CC(C)C)C(=O)N[C@@H](CCC(=O)O)C(=O)N[C@@H](CC(C)C)C(=O)N[C@@H](CCC(N)=O)C(=O)N[C@@H](CCCCN)C(=O)N[C@H](C(=O)N[C@@H](CCC(=O)O)C(=O)N[C@@H](C)C(=O)N[C@H](C(=O)N[C@@H](CCC(N)=O)C(=O)N[C@@H](CC(C)C)C(=O)N[C@@H](C)C(=O)N[C@H](C(=O)O)[C@@H](C)O)[C@@H](C)O)[C@@H](C)O [Envelope 41-55]	6.5 nM	3330 nM	3.1 nM	–	583 nM	684 nM	5.1 nM	2.3 nM	3260 nM	–	27 nM	349 nM	–	–	132 nM	–
CC[C@H](C)[C@H](NC(=O)[C@H](CC(C)C)NC(=O)[C@H](CCCCN)NC(=O)CN)C(=O)N[C@@H](Cc1c[nH]cn1)C(=O)N[C@@H](CCC(=O)O)C(=O)N[C@@H](Cc1c[nH]c2ccccc12)C(=O)N[C@@H](CS)C(=O)N[C@@H](CS)C(=O)N[C@@H](CCCNC(=N)N)C(=O)N[C@@H](CO)C(=O)N[C@@H](CS)C(=O)N[C@H](C(=O)N[C@@H](CC(C)C)C(=O)N1CCC[C@H]1C(=O)O)[C@@H](C)O [NS1 305-319]	2040 nM	1240 nM	1200 nM	4390 nM	3500 nM	6170 nM	7200 nM	2600 nM	4400 nM	841 nM	3190 nM	1770 nM	–	–	11400 nM	–
CC[C@H](C)[C@H](NC(=O)[C@H](C)N)C(=O)N[C@@H](CCC(N)=O)C(=O)N[C@@H](CCC(N)=O)C(=O)N[C@H](C(=O)N[C@@H](CCCNC(=N)N)C(=O)N[C@@H](CO)C(=O)N[C@@H](CC(C)C)C(=O)N[C@H](C(=O)NCC(=O)N[C@@H](CC(N)=O)C(=O)N[C@@H](CCC(=O)O)C(=O)N[C@@H](CCC(=O)O)C(=O)N[C@@H](Cc1ccccc1)C(=O)N[C@@H](CC(C)C)C(=O)N[C@@H](CC(=O)O)C(=O)N[C@@H](Cc1ccc(O)cc1)C(=O)O)[C@@H](C)CC)C(C)C [NS5 866-882]	2020 nM	8090 nM	–	–	–	–	–	4.3 nM	421 nM	178 nM	–	12 nM	543 nM	66 nM	–	148 nM
